Experimental data as given in PMC6337391 (Molecules, 2019).
Where two headings read alike, the source gives them in different places.

Experiments:
[1] = ABTS•+ decolorization assay
Summary of the method: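 Compounds (10 mM DMSO stocks, diluted) added to ABTS•+ radical generated by potassium persulfate oxidation of ABTS. Decolorization followed as absorbance at room temperature, with Trolox as standard.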

[2] = In vitro lipid peroxidation of liposomes
[3] = Inhibition of linoleic acid lipid peroxidation (AAPH)
Summary of the method: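 Sodium linoleate oxidation was initiated by AAPH in 0.05 M phosphate buffer, pH 7.4, at 37 °C, with test compound present and DMSO as blank. Conjugated diene hydroperoxide formation was followed as the absorbance increase at 234 nm.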

[4] = parameters: method as in PMID 25798685; details: cited from earlier work
[5] = molecular target: T1, soybean lipoxygenase (Glycine max, UniProt P08170); parameters: method as in PMID 25798685; details: cited from earlier work
T1 sequence (P08170 1-839): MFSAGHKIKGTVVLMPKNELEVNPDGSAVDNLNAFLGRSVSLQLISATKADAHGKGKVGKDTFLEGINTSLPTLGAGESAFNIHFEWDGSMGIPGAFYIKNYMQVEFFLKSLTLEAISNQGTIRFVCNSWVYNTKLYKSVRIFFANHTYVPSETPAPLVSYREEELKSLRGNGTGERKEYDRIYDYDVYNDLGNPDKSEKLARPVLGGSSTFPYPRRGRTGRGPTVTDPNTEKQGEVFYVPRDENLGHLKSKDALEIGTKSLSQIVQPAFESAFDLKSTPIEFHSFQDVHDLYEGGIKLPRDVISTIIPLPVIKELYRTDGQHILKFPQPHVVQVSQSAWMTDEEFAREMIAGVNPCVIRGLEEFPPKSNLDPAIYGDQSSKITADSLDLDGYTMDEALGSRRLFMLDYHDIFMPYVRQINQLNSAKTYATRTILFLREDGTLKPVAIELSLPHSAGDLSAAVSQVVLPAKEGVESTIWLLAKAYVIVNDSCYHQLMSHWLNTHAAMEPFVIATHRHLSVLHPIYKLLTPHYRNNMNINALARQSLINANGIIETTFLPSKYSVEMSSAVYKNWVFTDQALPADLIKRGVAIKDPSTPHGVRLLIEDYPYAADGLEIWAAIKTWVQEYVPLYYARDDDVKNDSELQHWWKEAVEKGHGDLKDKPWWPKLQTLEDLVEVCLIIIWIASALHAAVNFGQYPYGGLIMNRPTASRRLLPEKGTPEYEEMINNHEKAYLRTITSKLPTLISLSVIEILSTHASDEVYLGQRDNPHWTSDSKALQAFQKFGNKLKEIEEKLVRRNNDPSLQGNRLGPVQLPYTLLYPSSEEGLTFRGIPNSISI

[6] = molecular target: acetyl-cholinesterase (AChE) (Electrophorus electricus, UniProt O42275); details: cited from earlier work
[7] = parameters: method as in PMID 25798685; details: DPPH, cited from earlier work
[8] = tested on: L929 mouse fibroblasts cells; parameters: method as in PMID 25798685; details: 24-h incubation, cited from earlier work
[9] = parameters: method as in PMID 25798685; details: RP-TLC, methanol/water 70/30, SD < 10%; cited from earlier work
[10] = parameters: method as in PMID 25798685; details: cited from earlier work; remark: listed apart in the source
[11] = tested on: L929 mouse fibroblasts cells; assay: Cytotoxicity, propidium iodide fluorescence method; type: cell-based; details: 24-h incubation
Summary of the method: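 L929 cells in EMEM with 10% horse serum were allowed to attach for 24 h, then exposed to 1, 10, 20, 50 and 100 μM compound for 24 h at 37 °C. Cells were detached, stained with propidium iodide, and cell death was measured by flow cytometry.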

[12] = molecular target: T1, soybean lipoxygenase; assay: biochemical; type: biochemical; details: soybean LOX; for IC50: read-out: LOX IC50
Summary of the method: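 Soybean LOX (enzyme solution 1/9 × 10^−4 w/v in saline) incubated at room temperature with sodium linoleate ([…]) in tris buffer pH 9. Compounds added from DMSO stocks. IC50 derived from several concentrations.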

[13] = Lipophilicity as RM values by RP-TLC; type: physicochemical; parameters: key: RM = log[(1/Rf) − 1]; details: methanol/water 70/30, SD < 10%
Summary of the method: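 Reversed-phase TLC on silica gel plates impregnated with 5% (v/v) liquid paraffin, methanol/water 70/30 (v/v) mobile phase, saturated tanks at 24 °C, UV detection. RM = log[(1/Rf) − 1] from five Rf measurements.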

[14] = Reducing activity with the stable radical DPPH
Summary of the method: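 DPPH (final 0.05 mM) in absolute ethanol mixed with an equal volume of compound at 0.05 or 0.1 mM, ethanol as control. Absorbance at 517 nm read at room temperature after 20 and 60 min, expressed as reducing activity RA%.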

Sequence of acetyl-cholinesterase (AChE) (O42275 24-633): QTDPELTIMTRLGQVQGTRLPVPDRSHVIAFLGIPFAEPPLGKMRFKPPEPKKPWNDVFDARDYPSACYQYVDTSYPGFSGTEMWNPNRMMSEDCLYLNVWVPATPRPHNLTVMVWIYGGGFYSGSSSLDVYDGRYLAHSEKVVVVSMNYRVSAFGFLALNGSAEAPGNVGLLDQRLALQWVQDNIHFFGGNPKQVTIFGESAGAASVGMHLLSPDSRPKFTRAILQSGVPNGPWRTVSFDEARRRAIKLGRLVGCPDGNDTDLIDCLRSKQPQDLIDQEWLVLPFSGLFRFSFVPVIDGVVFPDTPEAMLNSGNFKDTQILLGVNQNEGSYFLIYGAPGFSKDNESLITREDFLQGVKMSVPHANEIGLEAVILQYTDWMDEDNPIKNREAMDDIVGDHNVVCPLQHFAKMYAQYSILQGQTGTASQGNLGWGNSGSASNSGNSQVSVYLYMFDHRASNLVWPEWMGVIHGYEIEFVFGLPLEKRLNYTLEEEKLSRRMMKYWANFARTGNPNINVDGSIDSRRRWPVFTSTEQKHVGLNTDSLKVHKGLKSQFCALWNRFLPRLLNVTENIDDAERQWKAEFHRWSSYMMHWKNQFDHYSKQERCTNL

Compound | ABTS•+ Inhb. % @ 100 μM [1] | % Inhb. of Liposomes LP @ 100 μM [2] | AAPH% @ 100 μM (anti-lipid peroxidation) [3] | ABTS•+ Inhb. % @ 100 μM [4] | % LOX Inhb. @ 100 μM [5] | % AChE Inhb. @ 100 μM [6] | RA% 100 μM 20 min [7] | RA% 100 μM 60 min [7] | 1 μM Average (% pi) ± σ [8] | 10 μM Average (% pi) ± σ [8] | 20 μM Average (% pi) ± σ [8] | 50 μM Average (% pi) ± σ [8] | 100 μM Average (% pi) ± σ [8] | RM [9] | % LOX Inhb. @ 100 μM [12] | IC50 [12] | RM [13] | RA% 100 μM 20 min [14] | RA% 100 μM 60 min [14] | further results
Cc1c(C)c2c(c(C)c1O)CCC(C)(C(=O)O)O2 (stereo not drawn) [Trolox, reference compound] | 96% | 69% | 93% |  |  |  |  |  |  |  |  |  |  |  |  |  |  |  |  | 
O=C(/C=C/c1cccc(Oc2ccccc2)c1)c1ccc(O)cc1 [a2, (E)-1-(4-hydroxyphenyl)-3-(3-phenoxyphenyl) prop-2-en-1-one] |  |  |  | No | 10% | 26% | 3% | 4% | 1 ± 0.5% | 3.5 ± 0.7% | 27.5 ± 8.9% | 63 ± 11.2% | 63 ± 11.2% | 0.36 |  |  |  |  |  | 
CN(C)c1ccc(/C=C/C=C/C(=O)c2ccc(O)cc2)cc1 [a3, (2E,4E)-5-(4-(dimethylamino)phenyl)-1-(4-hydroxyphenyl) penta-2,4-dien-1-one] |  |  |  | 12% | 56% | 50% | 18% | 17% | 14 ± 3.5% | 15 ± 0.8% | 19 ± 1.4% | 14 ± 0.7% | 14 ± 0.7% | −0.69 |  |  |  |  |  | IC50 ([5]; soybean LOX): 100 µM
O=C(/C=C/c1cccc2ccccc12)c1ccc(O)cc1 [a4, (E)-1-(4-hydroxyphenyl)-3-(naphthalen-1-yl) prop-2-en-1-one] |  |  |  | No | 44% | 25% | 7% | 3% | 8.5 ± 2.1% | 12 ± 4.2% | 29.5 ± 0.6% | 51 ± 9.9% | 51 ± 9.9% | −0.26 |  |  |  |  |  | 
O=C(/C=C/c1ccc(OCc2ccc(Br)cc2)cc1)c1ccc(OCCCOc2ccc(C(=O)/C=C/c3ccc(OCc4ccc(Br)cc4)cc3)cc2)cc1 [c1, (2E,2′E)-1,1′-((propane-1,3-diylbis(oxy))bis(4,1-phenylene))bis(3-(4-((4-bromobenzyl)oxy)phenyl)prop-2-en-1-one)] |  |  |  | no | 41% | 23% | 36% | 55% | 38.5 ± 6.9% | 49.5 ± 7.8% | 53.5 ± 0.71% | 74 ± 5.6% | 74 ± 5.6% | −0.68 |  |  |  |  |  | AAPH% @ 100 μM (anti-lipid peroxidation) [10]: 42%
Cc1ccc(/C=C/C(=O)c2ccc(OCCCOc3ccc(C(=O)/C=C/c4ccc(C)o4)cc3)cc2)o1 [c12, (2E,2′E)-1,1′-((propane-1,3-diylbis(oxy))bis(4,1-phenylene))bis(3-(5-methylfuran-2-yl)prop-2-en-1-one)] | 17% | 74% | 68% |  |  |  |  |  |  |  |  |  |  |  | 52% | 96 µM | −0.96 | No | no | 1 μM Average (% pi) ± σ ([11]; 1 μM): 13.22 ± 0.64%; 10 μM Average (% pi) ± σ ([11]; 10 μM): 31.31 ± 4.84%; 20 μM Average (% pi) ± σ ([11]; 20 μM): 53.79 ± 16.95%; 50 μM Average (% pi) ± σ ([11]; 50 μM): 84.03 ± 2.25%; 100 μM Average (% pi) ± σ ([11]; 100 μM): 84.03 ± 2.25%
CN(C)c1ccc(/C=C/C=C/C(=O)c2ccc(OCCOc3ccc(C(=O)/C=C/C=C/c4ccc(N(C)C)cc4)cc3)cc2)cc1 [ei] | 98% | 4% | 71% |  |  |  |  |  |  |  |  |  |  |  | 77% | 62.5 µM | 0.56 | No | no | 
CN(C)c1ccc(/C=C/C=C/C(=O)c2ccc(OCCCCCOc3ccc(C(=O)/C=C/C=C/c4ccc(N(C)C)cc4)cc3)cc2)cc1 [eiv, (2E,2′E,4E,4′E)-1,1′-((pentane-1,5-diylbis(oxy))bis(4,1-phenylene))bis(5-(4-(dimethylamino)phenyl)penta-2,4-dien-1-one)] | 73% | 77% | 72% |  |  |  |  |  |  |  |  |  |  |  | 23% |  | 0.13 | No | no | 
CN(C)c1ccc(/C=C/C=C/C(=O)c2ccc(OCCCCCCCOc3ccc(C(=O)/C=C/C=C/c4ccc(N(C)C)cc4)cc3)cc2)cc1 [evi, (2E,2′E,4E,4′E)-1,1′-((heptane-1,7-diylbis(oxy))bis(4,1-phenylene))bis(5-(4-(dimethylamino)phenyl)penta-2,4-dien-1-one)] | 79% | 64% | 64% |  |  |  |  |  |  |  |  |  |  |  | 65% | 76 µM |  | No | no | 
